According to patent US20240336617A1, “Substituted Bimane Compounds and Methods of Use Thereof” (THE TRUSTEES OF THE UNIVERSITY OF PENNSYLVANIA, priority 2023, published 2024):

What was measured:
αS fibrils = target: T1, αS fibrils (Homo sapiens, UniProt P37840); assay: Competition binding with ThT on αS fibrils
T1 construct: intein-His6 (C, cleaved yes); made in house; host or cells: Escherichia coli BL21

tau fibrils = target: T2, tau fibrils (Homo sapiens, UniProt P10636); assay: Fluorescence and excitation spectra with tau fibrils; type: binding
T2 construct: made in house; host or cells: E. coli BL21
Experimental: Fluorescence measurements were performed using a PTI QuantaMaster™ 40 fluorescence spectrometer. Fluorescence spectra of 5 μM probes (concentrated stock solution prepared as 10 mM in DMSO) (7j, 7k, 7l, 7m, and ThT) in PBS buffer were measured in the absence and presence of 25 μM tau fibrils (stock solution 32 μM tau fibrils in PBS buffer).
Excitation spectral measurements were performed using a PTI QuantaMaster™ 40 fluorescence spectrometer. Excitation spectra of 5 μM probes (concentrated stock solution prepared as 10 mM in DMSO) (7j, 7k, 7l, 7m, and ThT) in PBS buffer were measured in the absence and presence of 25 μM tau fibrils (stock solution 32 μM tau fibrils in PBS buffer).
Fluorescence measurements were performed using a PTI QuantaMaster 40 fluorescence spectrometer. Fluorescence spectra of 5 μM probes (concentrated stock solution prepared as 10 mM in DMSO) (5j, 5k, and ThT) in PBS buffer were measured in the absence and presence of 25 μM tau fibrils (stock solution 32 μM tau fibrils in PBS buffer).
Excitation spectral measurements were performed using a PTI QuantaMaster™ 40 fluorescence spectrometer. Excitation spectra of 5 μM probes (concentrated stock solution prepared as 10 mM in DMSO) (5j, 5k, and ThT) in PBS buffer were measured in the absence and presence of 25 μM tau fibrils (stock solution 32 μM tau fibrils in PBS buffer). […]

[1] = pH measurements (absorption and emission); type: physicochemical; conditions: pH 2-11
Experimental: 10 mM stock solutions of 7h, 7j, and 7k in DMSO were individually diluted into ACN/PBS buffer (50:50 v/v) having different pH ranging from pH 2-11 with 25 μM (500 μL) of final concentration. For pH screening of 7h and 7j, PBS buffer solutions were prepared, then adjusted the pH 2, 4, and 7 by adding 6 M hydrochloric acid, pH 9 and 11 by adding 5 M sodium hydroxide. For pH screening of 7k, pH 4.4 and 7.4 were prepared by citric acid/phosphate buffer. Then, the absorption and fluorescence spectra were recorded by using Thermo Scientific Genesys 150 UV-Vis spectrometer, followed by PTI QuantaMaster™ 40 fluorescence spectrometer by excitation with maximum absorption wavelength.
pH measurements. 10 mM stock solutions of 5h and 5j in DMSO were individually diluted into ACN/PBS buffer (50:50 v/v) having different pH ranging from pH 2-11 with 25 µM (500 μL) of final concentration. For pH screening of 5h and 5j, PBS buffer solutions were prepared, then adjusted the pH 2, 4, and 7 by adding 6 M hydrochloric acid, pH 9 and 11 by adding 5 M sodium hydroxide. Then, we have recorded the absorption and fluorescence spectra by using Thermo Scientific Genesys 150 UV-Vis spectrometer, followed by PTI QuantaMaster™ 40 fluorescence spectrometer by excitation with maximum absorption wavelength.

T2 sequence (P10636 1-412 isoform P10636-7): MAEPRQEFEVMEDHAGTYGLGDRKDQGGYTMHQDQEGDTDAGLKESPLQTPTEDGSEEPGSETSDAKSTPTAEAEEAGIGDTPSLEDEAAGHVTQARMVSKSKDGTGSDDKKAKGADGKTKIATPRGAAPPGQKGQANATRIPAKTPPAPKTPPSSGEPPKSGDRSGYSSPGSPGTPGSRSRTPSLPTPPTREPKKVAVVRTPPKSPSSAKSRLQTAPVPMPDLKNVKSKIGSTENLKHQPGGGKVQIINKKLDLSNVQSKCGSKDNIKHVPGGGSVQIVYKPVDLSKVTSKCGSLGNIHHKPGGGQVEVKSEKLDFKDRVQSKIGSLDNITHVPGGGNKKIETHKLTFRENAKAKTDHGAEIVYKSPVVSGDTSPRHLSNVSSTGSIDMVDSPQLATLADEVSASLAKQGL

Compound: Cc1c(C)n2c(/C=C/c3ccc(N4CCOCC4)cc3)c(C)c(=O)n2c1=O [Compound 7k, (E)-2,3,6-trimethyl-5-(4-morpholinostyryl)-1H,7H-pyrazolo[1,2-a]pyrazole-1,7-dione]
- competition with ThT on αS PFFs (αS fibrils): higher affinity compared than ThT

Compound: Cc1c(C)n2c(/C=C/c3ccc(N(C)C)cc3)c(C)c(=O)n2c1=O [Compound 7l, (E)-3-(4-(dimethylamino)styryl)-2,5,6-trimethyl-1H,7H-pyrazolo[1,2-a]pyrazole-1,7-dione]
- emission maximum bound to tau (tau fibrils): 596 nm

Compound: Cc1c(C)n2c(/C=C/c3ccc(N)cc3)c(C)c(=O)n2c1=O [Compound 7j, (E)-3-(4-aminostyryl)-2,5,6-trimethyl-1H,7H-pyrazolo[1,2-a]pyrazole-1,7-dione]
- pH effects on absorption and emission [1]: blue-shifted absorption and emission at pH 2
